The subject of data set [1] is BaF3. The data set can be described thus: Antiproliferative activity against mouse BaF3 cells incubated for 72 hrs by CCK-8 assay. The settings on record: BaF3, 72 h.
In data set [2] the test system is BaF3. The experiment in a line: Antiproliferative activity against mouse BaF3 cells expressing FGFR1 incubated for 72 hrs by CCK-8 assay. The class given is functional, cell-based. The settings on record: BaF3, 72 h.
Data set [3] relates to BaF3. The data set can be described thus: Antiproliferative activity against mouse BaF3 cells expressing FGFR2 incubated for 72 hrs by CCK-8 assay. The class given is functional, cell-based. The note with it: BaF3, 72 h. A general note: Tetrazolium assays rely on reduction of a dye to a coloured formazan, in cell work by metabolically active cells.
A short description of data set [4]: Oral bioavailability in mouse at 10 mg/kg. The class given is ADME, organism-based. The note with it: in vivo.
A short description of data set [5]: MRT(0 to t) in mouse at 1 mg/kg, iv. The class given is ADME, organism-based. The note with it: in vivo.
Data set [6] has as its target Fibroblast growth factor receptor 3 (Homo sapiens) (UniProt P22607). The data set can be described thus: Inhibition of FGFR3 (unknown origin) at 1 uM by KINOMEscan analysis relative to control.
Data set [7] concerns the target Fibroblast growth factor receptor 1 (Homo sapiens) (UniProt P11362). The data set can be described thus: Inhibition of FGFR1 (unknown origin) at 1 uM by KINOMEscan analysis relative to control.
The nature of data set [8]: Clearance in mouse at 1 mg/kg, iv. The class given is ADME, organism-based. The note with it: in vivo.
Data set [9] can be described thus: Antiproliferative activity against FGFR2 amplified human KATO III stomach cancer cell line measured after 72 hrs by CCK-8 assay. The class given is functional, cell-based.
The nature of data set [10]: MRT(0 to t) in mouse at 10 mg/kg, po. It is filed as ADME, organism-based. The settings on record: in vivo.
A short description of data set [11]: AUC(0 to t) in mouse at 10 mg/kg, po. The class given is ADME, organism-based. The note with it: in vivo.
Data set [12] deals with Fibroblast growth factor receptor 4 (Homo sapiens) (UniProt P22455). The data set can be described thus: Inhibition of FGFR4 (unknown origin) at 1 uM by KINOMEscan analysis relative to control.
Data set [13] is described as follows: Cmax in mouse at 10 mg/kg, po. It is filed as ADME, organism-based. The note with it: in vivo.
A short description of data set [14]: Half life in mouse at 10 mg/kg, po. The class given is ADME, organism-based. The note with it: in vivo.
Data set [15] has as its target Fibroblast growth factor receptor 2 (Homo sapiens) (UniProt P21802). The data set can be described thus: Inhibition of FGFR2 in human SNU-16 cells assessed as decrease in FRS2-alpha phosphorylation at Tyr436 residue incubated for 1 hr by Western blot analysis. The note with it: dose 0.5-100 nM. The class given is cell-based. (In general: A western blot detects proteins with antibodies after separation by electrophoresis.)

A short description of data set [16]: Antiproliferative activity against human RT-112 cells harboring FGFR3-TACC3 measured after 72 hrs by CCK-8 assay. The class given is functional, cell-based. The settings on record: RT-112, 72 h.
The subject of another data set is MDA-MB-453. The data set can be described thus: Antiproliferative activity against human MDA-MB-453 cells harboring FGFR4-Y367C measured after 72 hrs by CCK-8 assay. It is filed as functional, cell-based. The note with it: MDA-MB-453, 72 h.
For a further data set, the system named is A204. The experiment in a line: Antiproliferative activity against FGFR1 amplified human A204 cells measured after 72 hrs by CCK-8 assay. The class given is functional, cell-based. The settings on record: A204, 72 h.
Data set [17] in a line: Cmax in mouse at 1 mg/kg, iv. The class given is ADME, organism-based. The note with it: in vivo.
Data set [18] deals with Fibroblast growth factor receptor 2 (Homo sapiens) (UniProt P21802). The experiment in a line: Inhibition of FGFR2 in human SNU-16 cells assessed as decrease in Akt phosphorylation at Ser473 residue incubated for 1 hr by Western blot analysis. The class given is cell-based. The note with it: dose 0.5-100 nM.
A short description of data set [19]: Antiproliferative activity against FGFR2 amplified human SNU-16 cells measured after 72 hrs by CCK-8 assay. The note with it: SNU-16, 72 h. It is filed as functional, cell-based.
The target in data set [20] is Fibroblast growth factor receptor 2 (Homo sapiens) (UniProt P21802). The data set can be described thus: Inhibition of FGFR2 (unknown origin) at 1 uM by KINOMEscan analysis relative to control.
A short description of data set [21]: Half life in mouse at 1 mg/kg, iv. The class given is ADME, organism-based. The settings on record: in vivo.
A short description of data set [22]: AUC(0 to t) in mouse at 1 mg/kg, iv. The settings on record: in vivo. The class given is ADME, organism-based.
Data set [23] deals with Fibroblast growth factor receptor 2 (Homo sapiens) (UniProt P21802). The experiment in a line: Inhibition of FGFR2 in human SNU-16 cells assessed as decrease in ERK1/2 phosphorylation incubated for 1 hr by Western blot analysis. The class given is cell-based. The settings on record: dose 0.5-100 nM.
Data set [24] has the same target. The data set can be described thus: Inhibition of FGFR2 phosphorylation in human SNU-16 cells incubated for 1 hr by Western blot analysis. It is filed as cell-based. The settings on record: dose 0.5-100 nM.

Bounds are passed on as bounds.

Chain of Fibroblast growth factor receptor 2 (Homo sapiens) (P21802 22-821 limits assumed): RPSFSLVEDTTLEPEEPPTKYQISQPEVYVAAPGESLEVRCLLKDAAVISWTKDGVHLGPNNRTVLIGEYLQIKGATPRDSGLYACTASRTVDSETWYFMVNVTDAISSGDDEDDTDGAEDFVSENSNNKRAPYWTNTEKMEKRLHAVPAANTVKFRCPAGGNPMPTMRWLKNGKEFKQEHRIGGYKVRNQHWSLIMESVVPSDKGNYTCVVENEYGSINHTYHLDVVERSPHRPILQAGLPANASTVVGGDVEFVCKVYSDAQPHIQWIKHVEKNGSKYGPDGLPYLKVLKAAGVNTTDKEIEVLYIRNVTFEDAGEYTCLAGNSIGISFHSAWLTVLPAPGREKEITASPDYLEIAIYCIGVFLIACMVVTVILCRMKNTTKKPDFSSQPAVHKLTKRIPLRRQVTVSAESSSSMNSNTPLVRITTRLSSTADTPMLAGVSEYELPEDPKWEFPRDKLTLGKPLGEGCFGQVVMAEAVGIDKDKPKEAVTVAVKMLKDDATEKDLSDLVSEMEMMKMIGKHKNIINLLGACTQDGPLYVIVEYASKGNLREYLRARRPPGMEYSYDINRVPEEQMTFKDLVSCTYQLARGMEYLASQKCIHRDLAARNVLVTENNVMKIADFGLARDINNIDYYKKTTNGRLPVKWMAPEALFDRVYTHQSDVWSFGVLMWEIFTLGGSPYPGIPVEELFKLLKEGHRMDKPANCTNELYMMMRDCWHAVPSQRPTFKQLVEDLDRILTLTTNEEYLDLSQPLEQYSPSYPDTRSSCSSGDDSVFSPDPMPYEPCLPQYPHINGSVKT
Chain of Fibroblast growth factor receptor 3 (Homo sapiens) (P22607 23-806 limits assumed): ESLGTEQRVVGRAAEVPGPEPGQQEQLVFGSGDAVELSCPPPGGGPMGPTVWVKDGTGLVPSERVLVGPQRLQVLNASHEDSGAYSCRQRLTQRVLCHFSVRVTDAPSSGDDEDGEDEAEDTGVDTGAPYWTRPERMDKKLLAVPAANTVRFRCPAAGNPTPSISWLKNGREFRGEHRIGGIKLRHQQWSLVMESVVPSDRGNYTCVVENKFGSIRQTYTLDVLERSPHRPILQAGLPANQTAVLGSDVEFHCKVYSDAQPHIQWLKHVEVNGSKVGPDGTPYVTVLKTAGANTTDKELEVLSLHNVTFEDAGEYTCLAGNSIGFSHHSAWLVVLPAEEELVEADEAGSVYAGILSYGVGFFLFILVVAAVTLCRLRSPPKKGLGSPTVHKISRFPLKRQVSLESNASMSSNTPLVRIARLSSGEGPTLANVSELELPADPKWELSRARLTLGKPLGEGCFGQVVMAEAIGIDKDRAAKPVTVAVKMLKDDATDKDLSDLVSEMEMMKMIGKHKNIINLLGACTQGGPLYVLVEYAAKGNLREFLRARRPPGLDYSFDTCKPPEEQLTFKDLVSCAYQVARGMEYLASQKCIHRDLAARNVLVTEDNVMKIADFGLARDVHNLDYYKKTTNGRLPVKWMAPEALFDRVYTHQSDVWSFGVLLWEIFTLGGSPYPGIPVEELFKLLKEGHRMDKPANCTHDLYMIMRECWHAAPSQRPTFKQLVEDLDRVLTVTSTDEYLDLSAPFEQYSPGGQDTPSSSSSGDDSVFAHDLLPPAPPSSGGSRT
Chain of Fibroblast growth factor receptor 4 (Homo sapiens) (P22455 22-802 limits assumed): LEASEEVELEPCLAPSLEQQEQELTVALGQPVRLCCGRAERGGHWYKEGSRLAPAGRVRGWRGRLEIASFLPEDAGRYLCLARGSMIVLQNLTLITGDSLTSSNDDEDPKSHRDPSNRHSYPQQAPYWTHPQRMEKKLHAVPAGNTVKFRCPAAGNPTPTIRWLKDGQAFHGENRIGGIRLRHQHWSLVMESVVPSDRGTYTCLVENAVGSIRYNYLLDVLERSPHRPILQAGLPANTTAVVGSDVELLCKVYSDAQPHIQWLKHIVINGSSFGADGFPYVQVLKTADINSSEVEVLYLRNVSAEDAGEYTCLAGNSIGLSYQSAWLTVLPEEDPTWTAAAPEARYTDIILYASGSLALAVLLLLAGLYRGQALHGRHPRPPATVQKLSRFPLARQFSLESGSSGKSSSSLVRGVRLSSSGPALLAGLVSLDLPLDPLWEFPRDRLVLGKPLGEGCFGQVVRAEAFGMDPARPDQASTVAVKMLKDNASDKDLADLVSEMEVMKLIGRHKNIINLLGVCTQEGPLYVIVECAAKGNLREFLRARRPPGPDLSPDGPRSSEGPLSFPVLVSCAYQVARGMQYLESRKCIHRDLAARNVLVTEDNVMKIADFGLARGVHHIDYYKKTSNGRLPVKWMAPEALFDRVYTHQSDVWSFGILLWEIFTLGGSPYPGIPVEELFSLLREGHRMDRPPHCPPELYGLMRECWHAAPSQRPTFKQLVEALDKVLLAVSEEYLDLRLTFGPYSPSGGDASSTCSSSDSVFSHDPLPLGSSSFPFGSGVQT
Chain of Fibroblast growth factor receptor 1 (Homo sapiens) (P11362 22-822 limits assumed): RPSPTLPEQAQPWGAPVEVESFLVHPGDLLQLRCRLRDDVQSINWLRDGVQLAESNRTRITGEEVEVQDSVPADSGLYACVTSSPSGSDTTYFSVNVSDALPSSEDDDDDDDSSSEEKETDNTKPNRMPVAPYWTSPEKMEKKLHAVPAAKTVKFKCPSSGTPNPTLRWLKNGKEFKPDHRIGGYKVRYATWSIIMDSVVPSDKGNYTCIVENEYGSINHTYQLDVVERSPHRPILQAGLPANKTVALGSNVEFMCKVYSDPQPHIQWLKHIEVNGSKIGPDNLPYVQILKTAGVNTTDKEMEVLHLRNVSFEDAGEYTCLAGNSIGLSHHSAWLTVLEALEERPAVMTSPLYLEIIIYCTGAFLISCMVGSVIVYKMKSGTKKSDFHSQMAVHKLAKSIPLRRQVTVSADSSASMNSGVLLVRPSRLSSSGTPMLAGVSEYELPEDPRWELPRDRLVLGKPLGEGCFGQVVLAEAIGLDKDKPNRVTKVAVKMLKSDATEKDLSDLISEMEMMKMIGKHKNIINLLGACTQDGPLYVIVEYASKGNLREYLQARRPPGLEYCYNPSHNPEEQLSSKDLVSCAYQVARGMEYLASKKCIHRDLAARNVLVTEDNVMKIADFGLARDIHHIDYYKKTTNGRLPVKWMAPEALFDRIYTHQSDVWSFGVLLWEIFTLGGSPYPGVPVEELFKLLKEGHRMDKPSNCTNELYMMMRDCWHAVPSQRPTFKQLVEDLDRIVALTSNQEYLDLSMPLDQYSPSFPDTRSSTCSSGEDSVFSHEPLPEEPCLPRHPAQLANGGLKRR

As usually defined, the IC50 is the concentration needed to halve the response being measured. Read a high IC50 as weaker potency in that assay. For `C=CC(=O)Nc1ccc(-c2c(-c3ccc(S(=N)(=O)C4CC4)cc3)c3c(N)ncnc3n2C)cc1` (stereo not drawn), the IC50 was over 1000 nM with BaF3 [1], over 1000 nM in the data set on BaF3 [2] and 61.9 nM with BaF3 [3].

Turning to `C=CC(=O)Nc1ccc(-c2c(-c3ccc(S(=N)(=O)CC(C)(C)C)cc3)c3c(N)ncnc3n2C)cc1` (stereo not drawn), the 50% inhibitory concentration (IC50) in the data set with BaF3 [1] was over 1000 nM; in the data set on BaF3 [2], 684 nM; in the data set with BaF3 [3], 2.9 nM.

Turning to `C=CC(=O)Nc1ccc(-c2c(-c3ccc(S(C)(=O)=NC4CC4)cc3)c3c(N)ncnc3n2C)cc1` (stereo not drawn), the IC50 in the data set with BaF3 [1] was over 1000 nM; with BaF3 [2], over 1000 nM; with BaF3 [3], 108 nM.

Take `C=CC(=O)Nc1ccc(-c2c(-c3ccc(S(C)(=O)=Nc4ccccc4)cc3)c3c(N)ncnc3n2C)cc1` (stereo not drawn): the half-maximal inhibitory concentration (IC50) was over 1000 nM in the data set on BaF3 [1], 429 nM with BaF3 [2] and 101 nM with BaF3 [3].

As a reminder, the bioavailability is the share of a dose that reaches the circulation, judged against a reference dose that is usually intravenous. A lower bioavailability goes with poor availability. Usually MRT last stands for the average time that molecules of a dose stay in the body. A word on the inhibition: it is the relative decrease from the control value, in per cent. Broadly, the clearance is a measure of how efficiently the substance is removed, as volume per time. High values mean a high capacity for elimination, low ones a low capacity for elimination. As a reminder, the AUC(0-t) is the area under the concentration-time curve up to a stated or last time point. High values mean high exposure, low ones low exposure. The term Cmax denotes the peak of the concentration-time curve. Usually half-life stands for the time needed for the level to fall by half in the phase considered. `C=C(C)C(=O)Nc1ccc(-c2c(-c3ccc(S4(=O)=NCCCCC4)cc3)c3c(N)ncnc3n2C)c(F)c1` (stereo not drawn): the bioavailability in data set [4] was 29%. The MRT last in data set [5] turned out to be 28.8 min; in data set [10] it was 87.6 min. Moreover, the inhibition in data set [6] was 13.7%; in data set [7] it was 14.7%; in [12], 5.85%; in data set [15], “Dose-dependent-effect”; in data set [18] it was “Dose-dependent-effect”; in data set [20], 101%. For the same molecule, the inhibition entry in [23] and in [24] was “Dose-dependent-effect” in each case. Also, the half-inhibitory concentration (IC50) with BaF3 [1] is over 1000 nM; with BaF3 [2], over 1000 nM; in data set [9], 12.6 nM; in data set [16], 782 nM; in the data set with MDA-MB-453, 2850 nM; in the data set with BaF3 [3] it was 2.8 nM. Also, the IC50 was found to be 2380 nM in the data set on A204 and 6.7 nM in data set [19]. Besides, the clearance in data set [8] stood at 13.2 mL/min/kg. Further, the area under the curve AUC(0-t) in [11] was 3650 ng·h/mL; in data set [22], 1270 ng·h/mL. The highest concentration (Cmax) in [13] was determined as 2910 ng/mL; in data set [17], 4700 ng/mL. Further, the half-life in data set [14] was 64.8 min; in [21] it was 52.2 min.

As for `C=CC(=O)Nc1ccc(-c2c(-c3ccc(S(C)(=O)=NCC)cc3)c3c(N)ncnc3n2C)cc1` (stereo not drawn), the IC50 with BaF3 [1] was over 1000 nM; with BaF3 [2] it was over 1000 nM; in the data set on BaF3 [3] it was 153 nM.

`CCC(=O)Nc1ccc(-c2c(-c3ccc(S4(=O)=NCCCCC4)cc3)c3c(N)ncnc3n2C)c(F)c1` (stereo not drawn): the IC50 is over 1000 nM in the data set on BaF3 [1]; over 1000 nM with BaF3 [2]; 2210 nM in data set [9]; over 10000 nM in data set [16]; 4180 nM in the data set on MDA-MB-453; over 1000 nM in the data set with BaF3 [3]. Further, the concentration for half-maximal inhibition (IC50) in the data set on A204 is over 10000 nM; in data set [19] it was 1280 nM.

Consider `C=CC(=O)Nc1ccc(-c2c(-c3ccc(S4(=O)=NCCOCC4)cc3)c3c(N)ncnc3n2C)cc1` (stereo not drawn), for which the IC50 is over 1000 nM in the data set with BaF3 [1], over 1000 nM in the data set on BaF3 [2] and 310 nM in the data set on BaF3 [3].

As for `C=C(C)C(=O)Nc1ccc(-c2c(-c3ccc(S4(=O)=NCCCCC4)c(F)c3)c3c(N)ncnc3n2C)cc1` (stereo not drawn), the values for the IC50 with BaF3 [1], with BaF3 [2] and in the data set on BaF3 [3] were over 1000 nM, over 1000 nM and 105 nM, respectively.

Take `C=CC(=O)Nc1ccc(-c2c(-c3ccc(S(=N)(=O)CC)cc3)c3c(N)ncnc3n2C)cc1` (stereo not drawn): the concentration for half-maximal inhibition (IC50) in the data set with BaF3 [1] is over 1000 nM; with BaF3 [2] it was over 1000 nM; with BaF3 [3], 320 nM.

In the case of `C=CC(=O)Nc1ccc(-c2c(-c3ccc(S(C)(=N)=O)cc3)c3c(N)ncnc3n2C)cc1` (stereo not drawn), the IC50 with BaF3 [1] was over 1000 nM; in the data set with BaF3 [2], over 1000 nM; with BaF3 [3] it was 914 nM.

As for `C=CC(=O)Nc1ccc(-c2c(-c3ccc(S(C)(=O)=NC)cc3)c3c(N)ncnc3n2C)cc1` (stereo not drawn), the IC50 in the data set on BaF3 [1] is over 1000 nM; in the data set on BaF3 [2], over 1000 nM; in the data set on BaF3 [3] it was 335 nM.

Turning to `C=CC(=O)Nc1ccc(-c2c(-c3ccc(S(=N)(=O)CC(C)C)cc3)c3c(N)ncnc3n2C)cc1` (stereo not drawn), the IC50 was over 1000 nM in the data set on BaF3 [1], over 1000 nM in the data set on BaF3 [2] and 12.3 nM with BaF3 [3].

`C=CC(=O)Nc1ccc(-c2c(-c3ccc(S4(=O)=NCCCCC45CC5)cc3)c3c(N)ncnc3n2C)cc1` (stereo not drawn): the results for the IC50 with BaF3 [1], in the data set with BaF3 [2] and in the data set with BaF3 [3] were over 1000 nM, 385 nM and 3.6 nM, respectively.

For `C=CC(=O)Nc1ccc(-c2c(-c3ccc(S(=N)(=O)CCC)cc3)c3c(N)ncnc3n2C)cc1` (stereo not drawn), the half-maximal inhibitory concentration (IC50) in the data set with BaF3 [1] was over 1000 nM; in the data set on BaF3 [2] it was over 1000 nM; with BaF3 [3], 70.1 nM.

The values are drawn from ChEMBL document CHEMBL6114968, “Discovery of BW710 as a potent, selective and orally bioavailable fibroblast growth factor receptor 2 (FGFR2) inhibitor” (Eur J Med Chem, 2025).
